Measurements published in article PMC11201061, “Mechanistic Study of Antimicrobial Effectiveness of Cyclic Amphipathic Peptide [R4W4] against Methicillin-Resistant Staphylococcus aureus Clinical Isolates” (Antibiotics, 2024).
Converted amounts (≈) assume the structure as drawn. Structures can show the parent of a compound that is named as a salt. Where a SMILES comes first, the peptide text is derived from it.

Legend:
[1] = test system: MRSA (vancomycin hetero-non-susceptible) MU3; experiment: microbe, parasite or virus in culture; format: cell-based, Staphylococcus aureus
Experimental: (§1) To determine whether the antibacterial activity of [R4W4] is bacteriostatic or bactericidal against clinical isolates of multidrug-resistant bacterial isolates, MIC and MBC were determined using the microbroth dilution method. Bacteriostatic activity was defined as a ratio of the MBC/MIC greater than four and bactericidal activity as MBC/MIC ratio ≤ 4 [33]. We added aliquots of test samples (256 μg/mL concentration of [R4W4] or vancomycin as a control prepared in TSB) to the first well of microplates. MHB media was added to the remaining wells. Two-fold serial dilutions were performed, starting with the highest drug concentration in well 1, and the dilution process continued. A bacterial aliquot of 1/150 dilution was prepared with a 0.5 McFarland standard solution from an overnight culture of the tested bacteria isolate. Bacteria were added to the microplate and placed into wells with the drug dilutions. The microplates were incubated overnight for 24 h at 37 °C. [R4W4] was synthesized and purified, as reported earlier.

[2] = test system: MRSA Clin 5; experiment: microbe, parasite or virus in culture; format: cell-based, Staphylococcus aureus; settings: for MBC/MIC: MRSA Clin 5, lung isolate
Experimental: as §1

[3] = test system: MRSA Clin 6; experiment: microbe, parasite or virus in culture; format: cell-based, Staphylococcus aureus; settings: for MBC/MIC: MRSA Clin 6, lung isolate
Experimental: as §1

[4] = test system: MRSA LAC; experiment: microbe, parasite or virus in culture; format: cell-based, Staphylococcus aureus; settings: for MBC/MIC: MRSA LAC, wound isolate
Experimental: as §1

[5] = test system: MRSA Mec 1; experiment: microbe, parasite or virus in culture; format: cell-based, Staphylococcus aureus; settings: for MBC/MIC: MRSA Mec 1, blood isolate
Experimental: as §1

[6] = test system: MRSA Mec III; experiment: microbe, parasite or virus in culture; format: cell-based, Staphylococcus aureus; settings: for MBC/MIC: MRSA Mec III, wound isolate
Experimental: as §1

[7] = test system: MRSA Mec II; experiment: microbe, parasite or virus in culture; format: cell-based, Staphylococcus aureus; settings: for MBC/MIC: MRSA Mec II, blood isolate
Experimental: as §1

[8] = test system: MRSA Mec IV; experiment: microbe, parasite or virus in culture; format: cell-based, Staphylococcus aureus; settings: for MBC/MIC: MRSA Mec IV, lung isolate
Experimental: as §1

[9] = test system: MRSA Mec V; experiment: microbe, parasite or virus in culture; format: cell-based, Staphylococcus aureus; settings: for MBC/MIC: MRSA Mec V, wound isolate
Experimental: as §1

[10] = test system: C. difficile 9689; experiment: microbe, parasite or virus in culture; format: cell-based, Clostridioides difficile; settings: for MBC/MIC: C. difficile ATCC 9689, stool isolate
Experimental: as §1

[11] = test system: MRSA USA300; experiment: microbe, parasite or virus in culture; settings: for MIC against index isolate (no serial passage): MRSA USA300 index strain
Experimental: MRSA USA300 bacteria from −80 °C freezer stock were cultured on an LB agar plate overnight. One bacteria colony was added to a 6 mL fresh MHB with constant shaking at 200 rpm at 37 °C. The bacteria were transferred daily by inoculating 10 μL of stationary-phase culture into […] of MHB in a 1 mL cap-clipped Eppendorf tube. Then, 20 μL of bacteria aliquot was added to […] of MHB broth, with or without [R4W4], at a final concentration of the MIC overnight in an […] at 37 °C for five transfers. […] […] Experiments were performed in triplicates. Every time we increased the concentration of [R4W4], a sample of the induction generation was inoculated into 20% (vol/vol) glycerol and stored at −70 °C. The final MIC values of [R4W4], vancomycin, and levofloxacin were determined by modified microbroth dilution assay.

[12] = test system: MRSA LAC USA300; experiment: Surface charge neutralization by zeta potential; format: cell-based, Staphylococcus aureus; settings: for zeta potential of MRSA after treatment: agent at 16 μg/mL (4 × MIC of [R4W4]), HEPES pH 7.4, 150 mM NaCl, 25 °C, mean of triplicate, untreated −31 ± 0.88 mV
Experimental: Stock cultures of the MRSA strain from −80 °C were inoculated on MHB agar plates at 37 °C overnight. Two isolated colonies were inoculated in 6 mL MHB broth and allowed to grow overnight with shaking at 225 rpm. A 100 µL bacteria aliquot was added to a 5 mL fresh MHB, and the suspension was incubated to grow for 2 h at 37 °C to achieve a final bacteria concentration of ~3 × 10^8 CFU/mL as (A 600 ~0.1). The bacterial suspension was diluted using fresh MHB to 3 × 10^5 CFU/mL. The bacterial suspension was centrifuged at 11,400× g for 10 min and washed twice using 10 mM HEPES buffer, pH 7.4, containing 150 mM NaCl (normal saline).
An amount of 100 µLs of test samples was added to 900 µL of the bacterial aliquots using a positive buffer without test samples.
Meanwhile, the Malvern Zetasizer Nano was set to read samples at 25 °C. The bacterial suspension was dispensed into disposable zeta cells with gold electrodes and allowed to equilibrate for 15 min at 25 °C. The zeta potential value for each sample was calculated from the measured value of electrophoretic mobility using the Smuluchowski equation.

[13] = test system: Enterococcus faecium (VRE); format: cell-based; settings: urine isolate
Experimental: as §1

[14] = test system: bacterial isolates (nine MRSA, B. subtilis, C. difficile, VRE); format: cell-based; settings: for bacteriostatic or bactericidal (Pankey's definition, MBC/MIC ≤ 4 bactericidal): all tested bacterial isolates; for MBC increase over MIC values: all the strains tested
Experimental: as §1

[15] = Staphylococcus aureus, MRSA, 24 h

N=C(N)NCCC[C@@H]1NC(=O)[C@H](CCCNC(=N)N)NC(=O)[C@H](CCCNC(=N)N)NC(=O)[C@H](Cc2c[nH]c3ccccc23)NC(=O)[C@H](Cc2c[nH]c3ccccc23)NC(=O)[C@H](Cc2c[nH]c3ccccc23)NC(=O)[C@H](Cc2c[nH]c3ccccc23)NC(=O)[C@H](CCCNC(=N)N)NC1=O [[R4W4]] (cyclo(RRRRWWWW))
MBC/MIC ([1]; MRSA MU3, lung isolate): 2 | MBC ([1]; MRSA MU3, lung isolate, averages of triplicates of three different experiments): 32 µg/mL (≈ 23.4 µM) | MIC ([1]; vancomycin hetero-non-susceptible) MU3, 24 h): 16 µg/mL (≈ 11.7 µM) | MBC ([2]; Clin 5, 24 h): 32 µg/mL (≈ 23.4 µM) | MIC ([2]; Clin 5, 24 h): 16 µg/mL (≈ 11.7 µM) | MBC/MIC [2]: 2 | MBC ([3]; Clin 6, 24 h): 32 µg/mL (≈ 23.4 µM) | MIC ([3]; Clin 6, 24 h): 32 µg/mL (≈ 23.4 µM) | MBC/MIC [3]: 1 | MBC ([4]; LAC, 24 h): 16 µg/mL (≈ 11.7 µM) | MBC/MIC [4]: 4 | MBC/MIC [5]: 2 | MBC ([5]; Mec 1, 24 h): 4 µg/mL (≈ 2.92 µM) | MIC ([5]; Mec 1, 24 h): 2 µg/mL (≈ 1.46 µM) | MBC/MIC [6]: 2 | MBC ([6]; Mec III, 24 h): 8 µg/mL (≈ 5.84 µM) | MIC ([6]; Mec III, 24 h): 4 µg/mL (≈ 2.92 µM) | MBC/MIC [7]: 2 | MBC ([7]; Mec II, 24 h): 8 µg/mL (≈ 5.84 µM) | MIC ([7]; Mec II, 24 h): 4 µg/mL (≈ 2.92 µM) | MBC/MIC [8]: 2 | MBC ([8]; Mec IV, 24 h): 64 µg/mL (≈ 46.7 µM) | MIC ([8]; Mec IV, 24 h): 32 µg/mL (≈ 23.4 µM) | MBC/MIC [9]: 4 | MBC ([9]; Mec V, 24 h): 64 µg/mL (≈ 46.7 µM) | MIC ([9]; Mec V, 24 h): 16 µg/mL (≈ 11.7 µM) | MBC ([10]; 9689, 24 h): 4 µg/mL (≈ 2.92 µM) | MIC ([10]; 9689, 24 h): 2 µg/mL (≈ 1.46 µM) | MBC/MIC [10]: 2 | final [R4W4] concentration at which growth was achieved at the end of serial passage ([11]; MRSA USA300, 35 passages, stepwise increasing concentration): 32 µg/mL | MIC against serial passaged [R4W4]-resistant isolate ([11]; MRSA USA300 after serial passage in [R4W4], MIC in duplicate): 16 µg/mL (≈ 11.7 µM) | MIC against index isolate (no serial passage) ([11]; MIC in duplicate): 4 µg/mL (≈ 2.92 µM) | concentration required to achieve neutralization of negative surface charge ([12]; 2 × MIC): 8 µg/mL | zeta potential of MRSA after treatment [12]: −8.37 mV | MBC/MIC [13]: 4 | MIC range, MRSA clinical isolates from the blood ([14]; 24 h): 2 to 4 µg/mL | MIC range, MRSA clinical isolates from the lungs ([14]; 24 h): 16 to 32 µg/mL | bacteriostatic or bactericidal (Pankey's definition, MBC/MIC ≤ 4 bactericidal) [14]: bactericidal | MBC increase over MIC values [14]: 2–4 fold

CN[C@H](CC(C)C)C(=O)N[C@H]1C(=O)N[C@@H](CC(N)=O)C(=O)N[C@H]2C(=O)N[C@H]3C(=O)N[C@H](C(=O)N[C@H](C(=O)O)c4cc(O)cc(O)c4-c4cc3ccc4O)[C@H](O)c3ccc(c(Cl)c3)Oc3cc2cc(c3O[C@@H]2O[C@H](CO)[C@@H](O)[C@H](O)[C@H]2O[C@H]2C[C@](C)(N)[C@H](O)[C@H](C)O2)Oc2ccc(cc2Cl)[C@H]1O [Vancomycin, Vancomycin Hydrochloride, reference compound]
MBC/MIC ([1]; MRSA MU3, lung isolate): 1.5 | MBC ([1]; Staphylococcus aureus, MRSA): 3 µg/mL | MIC [1, 15]: 2 µg/mL | MBC/MIC [2]: 1 | MBC ([2]; Staphylococcus aureus, MRSA): 2 µg/mL | MIC [2, 15]: 2 µg/mL | MBC/MIC [3]: 4 | MBC ([3]; Staphylococcus aureus, MRSA): 8 µg/mL | MIC [3, 15]: 2 µg/mL | MBC/MIC [4]: 2 | MBC ([4]; Staphylococcus aureus, MRSA): 2 µg/mL | MIC [4, 15]: 1 µg/mL | MBC/MIC [5]: 2 | MBC ([5]; Staphylococcus aureus, MRSA): 2 µg/mL | MIC [5, 15]: 1 µg/mL | MBC/MIC [6]: 2 | MBC ([6]; Staphylococcus aureus, MRSA): 2 µg/mL | MIC [6, 15]: 1 µg/mL | MBC/MIC [7]: 2 | MBC ([7]; Staphylococcus aureus, MRSA): 4 µg/mL | MIC [7, 15]: 2 µg/mL | MBC/MIC [8]: 4 | MBC ([8]; Staphylococcus aureus, MRSA): 8 µg/mL | MIC [8, 15]: 2 µg/mL | MBC/MIC [9]: 2 | MBC ([9]; Staphylococcus aureus, MRSA): 4 µg/mL | MIC [9, 15]: 2 µg/mL | MBC/MIC [10]: 2 | MBC ([10]; Clostridioides difficile, ATCC9689): 1 µg/mL | MIC ([10]; Clostridioides difficile, ATCC9689, 24 h): 0.5 µg/mL | MIC against index isolate (no serial passage) ([11]; MIC in duplicate): 0.5 µg/mL | change in MIC after serial passage ([11]; MRSA USA300 passaged versus index strain): 4 folds | MIC ([11]; Staphylococcus aureus, MRSA|USA300, read-out: MIC against serial passaged [R4W4]-resistant isolate): 4 µg/mL | zeta potential of MRSA after treatment [12]: −33.03 mV | MIC ([13]; microbroth dilution, 24 h, 37 °C, averages of triplicates of three different experiments, N/A = not active): not active | bacteriostatic or bactericidal (Pankey's definition, MBC/MIC ≤ 4 bactericidal) [14]: bactericidal | MBC increase over MIC values [14]: 2–4 fold
